{"source": "patent US11420968B2", "about": "(priority 2018, dated 2022)", "key": {"[1]": {"target": "T1, Bcl-2 (Homo sapiens (Human), UniProt P10415)", "assay": "biochemical", "details": "Biochemical activity (IC50, nM) BCL-2"}, "[2]": {"target": "T1, Bcl-2"}, "[3]": {"test_system": "RS4;11 cells", "protocol": "Each compound was serially diluted with 1 μM as the maximum concentration. To test the apoptotic effect of the compounds, the cells were seeded at 50,000 in 180 μl per well in 96-well plates and treated with 10-point dilution series of each compound for 48 hours at 37° C. Cell viability was assessed after the treatment using CellTiter-GLO luminescent assay (Promega) according to the manufacturer's recommendations. Briefly, 30 μl of CellTiter-GLO reagent was added into 200 μl of cell culture. Mixture was agitated on an orbital shaker for 5 minutes to ensure cell lysis followed by 7 mins incubation at room temperature to allow development and stabilization of luminescent signals, which corresponded to quantity of ATP and thus the quantity of metabolically active cells. Luminescent signals were measured using PHERAstar FS reader (BMG). Mean IC50 values for cell viability were determined with GraphPad Prism software. […] The anti-proliferative IC50s of these compounds were similarly determined as a percentage of viable cells upon treatment compared to the untreated control using CellTiter-GLO luminescent assay."}}}
{"smiles": "O=C(NS(=O)(=O)c1ccc(NCC2CCOCC2)c([N+](=O)[O-])c1)c1ccc(N2CCC3(CCC(N4CCC[C@H]4c4ccccc4C4CC4)CC3)C2)cc1Oc1cnc2[nH]ccc2c1", "note": "(stereo partly drawn) [Example F42, (S)-2-((1H-pyrrolo[2,3-b]pyridin-5-yl)oxy)-4-(8-(2-(2-cyclopropylphenyl)pyrrolidin-1-yl)-2-azaspiro[4.5]decan-2-yl)-N-((3-nitro-4-(((tetrahydro-2H-pyran-4-yl)methyl)amino)phenyl)sulfonyl)benzamide]", "values": [{"measurement": "IC50", "setting": "[1]", "value": 44, "unit": "nM"}]}
{"smiles": "O=C(NS(=O)(=O)c1ccc(NCC2CCOCC2)c([N+](=O)[O-])c1)c1ccc(N2CC3(CN(CC4CCCN4c4ccccc4C4CC4)C3)C2)cc1Oc1cnc2[nH]ccc2c1", "note": "(stereo not drawn) [Example F114, 2-((1H-pyrrolo[2,3-b]pyridin-5-yl)oxy)-4-(6-((1-(2-cyclopropylphenyl)pyrrolidin-2-yl)methyl)-2,6-diazaspiro[3.3]heptan-2-yl)-N-((3-nitro-4-(((tetrahydro-2H-pyran-4-yl)methyl)amino)phenyl)sulfonyl)benzamide]", "values": [{"measurement": "folds less potent than its analog in biochemical assay", "setting": "[2]", "value": "28 to 80", "unit": "folds"}, {"measurement": "folds less potent than its analog in cellular assay", "setting": "[3]", "value": "15 to 22", "unit": "folds"}]}
